We go through 1 compound from US11660342B2, “Method for increasing permeability of blood-brain barrier” (POSTECH Research and Business Development Foundation, priority 2020, dated 2023).

A short description of data set [1]: Behaviour in water (aggregation, solubility). The class given is physicochemical.
Data set [2] can be described thus: Ultrasound-responsive NO release, real-time NO analysis. Particulars: FIG. 5. The class given is physicochemical. The protocol: Subsequently, ultrasound-responsive NO release of the nanogenerator was monitored under physiological conditions (DPBS, pH 7.4, 37° C.). When ultrasound was absent, only a small overall amount (1.53 nmol/mg) of NO was released.

Take `CCC(C)N(N=O)c1ccc(N(N=O)C(C)CC)cc1` (centres unmarked) [BNN6, N,N′-di-sec-butyl-N,N′-dinitroso-1,4-phenylenediamine]: the water solubility result in data set [1] was “water-insoluble”. In addition, the “ultrasound-responsive nitric oxide release behavior” value in data set [2] is “complete NO-releasability”.
